Measured values taken from US12702676B2, “Fosfomycin dosing regimens” (priority 2017, dated 2026).

Tests used:
[1] = system: baseline bacterial pathogen in cUTI or AP; assay: ZEUS Phase 2/3 noninferiority trial, efficacy at TOC in hospitalized adults; assay type: in vivo, human
Experimental: Oral step-down therapy was prohibited (FIG. 4).
A post-hoc analysis using pulsed-field gel electrophoresis (PFGE) was performed to molecularly type all baseline and TOC pathogens (both treatment arms), in order to confirm microbiological eradication/persistence; a total of 20 post-baseline pathogens were identified as unique, unrelated strains compared to baseline.

[2] = ZEUS Phase 2/3 trial, safety (adverse events)
[3] = Bacteremia, m-MITT (N1 19 ZTI-01, 13 P-T)
[4] = CE-TOC (N1 199 ZTI-01, 196 P-T)
[5] = ME-TOC (N1 155 ZTI-01, 145 P-T)
[6] = Original Analysis, ME-TOC (N1 155 ZTI-01, 145 P-T)
[7] = Original Analysis, m-MITT (N1 184 ZTI-01, 178 P-T)
[8] = Post-hoc Analysis Using PFGE Typing, ME-TOC (N1 155 ZTI-01, 145 P-T)
[9] = Post-hoc Analysis Using PFGE Typing, m-MITT (N1 184 ZTI-01, 178 P-T)
[10] = SIRS, m-MITT (N1 62 ZTI-01, 52 P-T)
[11] = m-MITT (N1 184 ZTI-01, 178 P-T)
[12] = MITT Safety Population (n = 233 ZTI-01, n = 231 P-T)

piperacillin/tazobactam [P-T]
Clinical Response at TOC: Eradication [1, 3]: 10 (76.9%) n (%) | Clinical Response at TOC: Indeterminate [1, 3]: 0 (0%) n (%) | Clinical Response at TOC: Persistence [1, 3]: 3 (23.1%) n (%) | Overall Response at TOC: Eradication [1, 3]: 5 (38.5%) n (%) | Overall Response at TOC: Indeterminate [1, 3]: 0 (0%) n (%) | Overall Response at TOC: Persistence [1, 3]: 8 (61.5%) n (%) | Per-patient Microbiological Response at TOC: Eradication [1, 3]: 6 (46.2%) n (%) | Per-patient Microbiological Response at TOC: Indeterminate [1, 3]: 0 (0%) n (%) | Per-patient Microbiological Response at TOC: Persistence [1, 3]: 7 (53.8%) n (%) | Clinical Response at TOC: Cure [1, 4]: 182 (92.9%) n (%) | Clinical Response at TOC: Failure [1, 4]: 14 (7.1%) n (%) | Clinical Response at TOC: Cure [1, 5]: 135 (93.1%) n (%) | Clinical Response at TOC: Failure [1, 5]: 10 (6.9%) n (%) | Clinical Response at TOC: Cure ([1]; MITT (N1 233 ZTI-01, 231 P-T)): 212 (91.8%) n (%) | Clinical Response at TOC: Failure ([1]; MITT (N1 233 ZTI-01, 231 P-T)): 16 (6.9%) n (%) | Clinical Response at TOC: Indeterminate ([1]; MITT (N1 233 ZTI-01, 231 P-T)): 3 (1.3%) n (%) | Microbiological Response at TOC: Eradication [1, 6]: 86 (59.3%) n (%) | Microbiological Response at TOC: Persistence [1, 6]: 59 (40.7%) n (%) | Microbiological Response at TOC: Eradication [1, 7]: 100 (56.2%) n (%) | Microbiological Response at TOC: Indeterminate [1, 7]: 9 (5.1%) n (%) | Microbiological Response at TOC: Persistence [1, 7]: 69 (38.8%) n (%) | Microbiological Response at TOC: Eradication [1, 8]: 93 (64.1%) n (%) | Microbiological Response at TOC: Persistence [1, 8]: 52 (35.9%) n (%) | Microbiological Response at TOC: Eradication [1, 9]: 107 (60.1%) n (%) | Microbiological Response at TOC: Indeterminate [1, 9]: 9 (5.1%) n (%) | Microbiological Response at TOC: Persistence [1, 9]: 62 (34.8%) n (%) | Clinical Response at TOC: Eradication [1, 10]: 48 (92.3%) n (%) | Clinical Response at TOC: Indeterminate [1, 10]: 2 (3.8%) n (%) | Clinical Response at TOC: Persistence [1, 10]: 2 (3.8%) n (%) | Overall Response at TOC: Eradication [1, 10]: 39 (75.0%) n (%) | Overall Response at TOC: Indeterminate [1, 10]: 2 (3.8%) n (%) | Overall Response at TOC: Persistence [1, 10]: 11 (21.2%) n (%) | Patient Microbiological response at TOC: Eradication [1, 10]: 40 (76.9%) n (%) | Patient Microbiological response at TOC: Indeterminate [1, 10]: 2 (3.8%) n (%) | Patient Microbiological response at TOC: Persistence [1, 10]: 10 (19.2%) n (%) | Clinical Response at TOC: Cure [1, 11]: 163 (91.6%) n (%) | Clinical Response at TOC: Failure [1, 11]: 12 (6.7%) n (%) | Clinical Response at TOC: Indeterminate [1, 11]: 3 (1.7%) n (%) | overall success rates at TOC ([1]; m-MITT population, clinical cure plus microbiologic eradication, 6 g ZTI-01 q8h or 4.5 g P-T q8h IV): 54.5% | overall success rates using unique pathogen strains typed by PFGE ([1]; post-hoc analysis, m-MITT, TOC): 57.3% | Any AEs [2, 12]: 74 (32.0%) n (%) | Any TEAEs [2, 12]: 74 (32.0%) n (%) | Drug-related SAE [2, 12]: 1 (0.4%) n (%) | Drug-related TEAEs [2, 12]: 32 (13.9%) n (%) | SAEs [2, 12]: 6 (2.6%) n (%) | Serious TEAEs leading to study drug discontinuation [2, 12]: 1 (0.4%) n (%) | TEAEs leading to study drug discontinuation [2, 12]: 6 (2.6%) n (%) | TEAEs: Mild [2, 12]: 49 (21.2%) n (%) | TEAEs: Moderate [2, 12]: 38 (16.5%) n (%) | TEAEs: Severe [2, 12]: 4 (1.7%) n (%) | SAE related to study drug (1 in each treatment group) ([2]; in vivo): renal insufficiency
